Measurements as given in patent publication US12491180B2, “Application of compound in treating pneumonia” (SHENZHEN OPTIMUM BIOLOGICAL TECHNOLOGY CO., LTD., priority 2019, dated 2025).
In brackets after ≈: the same amount, converted by molar mass.

Tests used:
Type in all cases: cell-based
[1] = test system: Enterobacter cloacae 11699; assay: MIC, solid dilution method; conditions: E. cl 11699, CSE clinical isolate, MHA agar, 37° C., 16-20 hours, read-out: MIC
Description: (§1) The above-mentioned glycerol-preserved strains were taken out from the −80° C. refrigerator, streaked and inoculated on MHA plates, labeled, and cultured overnight in a 37° C. incubator.
(§2) The inoculum was prepared directly from bacterial suspension, and several recovered colonies were picked and directly prepared into a bacterial suspension with a turbidity of No. 0.5 McFarland units in normal saline, and a 10-fold dilution was made during inoculation.
(§3) Sterile blank petri dishes were taken, and marked with each FL drug/concentration according to 2-fold dilution, and 10 concentrations of each drug starting from 8 μg/mL were tested.
(§4) 4 bacterial control petri dishes without drug were prepared at the same time as a control.
(§5) The positioning needle and the inoculation needle were installed according to the order of placement of the colony on the inoculation plate. After inoculation, a bacterial solution circle was formed on the petri dish. After the bacterial solution was absorbed by the agar, the petri dish was placed in an incubator at 37° C. for overnight incubation (16-20 hours), and then taken out.

[2] = test system: Enterobacter cloacae 11090; assay: MIC, solid dilution method; conditions: E. cl 11090, CRE clinical isolate, MHA agar, 37° C., 16-20 hours, read-out: MIC
Description: as §1, §2, §3, §4, §5

[3] = test system: Enterobacter cloacae 14653; assay: MIC, solid dilution method; conditions: E. cl 14653, CRE clinical isolate, MHA agar, 37° C., 16-20 hours, read-out: MIC
Description: as §1, §2, §3, §4, §5

[4] = test system: Enterobacter aerogenes 8193; assay: MIC, solid dilution method; conditions: Klebsiella aerogenes; E. ae 8193, CRE clinical isolate; MHA agar, 37° C., 16-20 hours; read-out: MIC
Description: CRE Enterobacter aerogenes 8193, a total of 1 strain;
as §1, §2
(§6) 6 bottles of MHA culture medium 500 mL/bottle were prepared, and the pH was adjusted to 7.2-7.4, sterilized at 121° C. for 15 min, and the medium was placed in a 55° C. water bath to keep warm.
as §3
(§7) […]; 20 mL was aspirated and added to a petri dish consistent with the mark, and then 20 mL of MHA culture medium was added to the rest of the drug-containing culture medium, mixed evenly, that is, the 2-fold diluted drug-containing culture medium; 20 mL was aspirated and added to the petri dish consistent with the mark, and then diluted to the 10th concentration and the […] respectively by repeating the above-mentioned steps, and then poured into the petri dish.
as §4, §5
(§8) The minimum inhibitory concentrations of the compounds against the CRE and CSE strains were determined by the solid dilution method, and the results are shown in Tables 3 and 4.

[5] = test system: Escherichia coli 13897; assay: MIC, solid dilution method; conditions: E. coli 13897, CRE clinical isolate, MHA agar, 37° C., 16-20 hours, read-out: MIC
Description: as §1, §2, §6, §3, §7, §4, §5, §8

[6] = test system: E. coli 11256; assay: MIC, solid dilution method; conditions: Escherichia coli; E. coli 11256; MHA agar, 37° C., 16-20 hours; read-out: MIC
Description: as §1, §2, §6, §3, §7, §4, §5, §8

[7] = test system: Escherichia coli 14828; assay: MIC, solid dilution method; conditions: E. coli 14828, CRE clinical isolate, MHA agar, 37° C., 16-20 hours, read-out: MIC
Description: as §1, §2, §6, §3, §7, §4, §5, §8

[8] = test system: Klebsiella oxytoca 14151; assay: MIC, solid dilution method; conditions: K. ox 14151, CRE clinical isolate, MHA agar, 37° C., 16-20 hours, read-out: MIC
Description: as §1, §2, §6, §3, §7, §4, §5, §8

[9] = test system: Klebsiella oxytoca 6777; assay: MIC, solid dilution method; conditions: K. ox 6777, CRE clinical isolate, MHA agar, 37° C., 16-20 hours, read-out: MIC
Description: as §1, §2, §6, §3, §7, §4, §5, §8

[10] = test system: Escherichia coli 11119; assay: MIC, solid dilution method; conditions: E. coli 11119, CRE clinical isolate, MHA agar, 37° C., 16-20 hours, read-out: MIC
Description: as §1, §2, §6, §3, §7, §4, §5, §8

[11] = test system: Klebsiella oxytoca 12391; assay: MIC, solid dilution method; conditions: K. ox 12391, CRE clinical isolate, MHA agar, 37° C., 16-20 hours, read-out: MIC
Description: as §1, §2, §6, §3, §7, §4, §5, §8

[12] = test system: Klebsiella oxytoca 14153; assay: MIC, solid dilution method; conditions: K. ox 14153, CRE clinical isolate, MHA agar, 37° C., 16-20 hours, read-out: MIC
Description: as §1, §2, §6, §3, §7, §4, §5, §8

[13] = test system: Acinetobacter baumannii 8476; assay: MIC, solid dilution method; conditions: A.B 8476, CRE clinical isolate, MHA agar, 37° C., 16-20 hours, read-out: MIC
Description: (§9) CRE Acinetobacter baumannii 8476, 6383, a total of 2 strains; CRE Serratia marcescens 14541, a total of 1 strain; all collected in the Department of Infectious Diseases, West China Hospital, Chengdu, Sichuan Province, and kept in our laboratory.
as §1, §2, §6, §3, §7, §4, §5, §8

[14] = test system: Serratia marcescens 14541; assay: MIC, solid dilution method; conditions: Sma 14541, CRE clinical isolate, MHA agar, 37° C., 16-20 hours, read-out: MIC
Description: as §9, §1, §2, §6, §3, §7, §4, §5, §8

[15] = test system: Acinetobacter baumannii 6383; assay: MIC, solid dilution method; conditions: A.B 6383, CRE clinical isolate, MHA agar, 37° C., 16-20 hours, read-out: MIC
Description: as §9, §1, §2, §6, §3, §7, §4, §5, §8

[16] = test system: Klebsiella pneumoniae 12559; assay: MIC, solid dilution method; conditions: K.p 12559, CRE clinical isolate, MHA agar, 37° C., 16-20 hours, read-out: MIC
Description: (2) Clinical isolated strains: CRE Klebsiella pneumoniae 5846, 11544, 12559, 13249 and CSE Klebsiella pneumoniae 8733, a total of 5 strains;
as §1, §2, §6, §3, §7, §4, §5, §8

[17] = test system: Citrobacter freundii 7646; assay: MIC, solid dilution method; conditions: C.f 7646, CSE clinical isolate, MHA agar, 37° C., 16-20 hours, read-out: MIC
Description: (§10) CRE Citrobacter freundii 9434, 9484 and CSE Citrobacter freundii 7646, a total of 3 strains;
as §1, §2, §6, §3, §7, §4, §5, §8

[18] = test system: Citrobacter freundii 9484; assay: MIC, solid dilution method; conditions: C.f 9484, CRE clinical isolate, MHA agar, 37° C., 16-20 hours, read-out: MIC
Description: as §10, §1, §2, §6, §3, §7, §4, §5, §8

[19] = test system: Citrobacter freundii 9434; assay: MIC, solid dilution method; conditions: C.f 9434, CRE clinical isolate, MHA agar, 37° C., 16-20 hours, read-out: MIC
Description: as §10, §1, §2, §6, §3, §7, §4, §5, §8

[20] = test system: 16 clinical CRE strains; assay: MIC50, MIC90 and MIC range against 16 clinical CRE strains; conditions: 16 clinical CRE strains; for MIC50: read-out: MIC50; for MIC90: read-out: MIC90
Description: as §1, §2, §6, §3, §7, §4, §5, §8

Row | MIC [1] | MIC [2] | MIC [3] | MIC [5] | MIC [6] | MIC [7] | MIC [8] | MIC [9] | MIC [10] | MIC [11] | MIC [12] | MIC [13] | MIC [14] | MIC [15] | MIC [16] | MIC [17] | MIC [18] | MIC [19] | MIC50 [20] | Compound | MIC [4] | also measured
1 | 0.06 µg/mL (≈ 0.0897 µM) | 2 µg/mL (≈ 2.99 µM) | 1 µg/mL (≈ 1.5 µM) | 0.25 µg/mL (≈ 0.374 µM) | 0.06 µg/mL (≈ 0.0897 µM) | 0.5 µg/mL (≈ 0.748 µM) | 0.5 µg/mL (≈ 0.748 µM) | 0.5 µg/mL (≈ 0.748 µM) | > 8 µg/mL | 1 µg/mL (≈ 1.5 µM) | 1 µg/mL (≈ 1.5 µM) | 2 µg/mL (≈ 2.99 µM) | > 8 µg/mL | 8 µg/mL (≈ 12 µM) | 0.5 µg/mL (≈ 0.748 µM) | 0.5 µg/mL (≈ 0.748 µM) | 0.25 µg/mL (≈ 0.374 µM) | 0.5 µg/mL (≈ 0.748 µM) | 2 µg/mL (≈ 2.99 µM) | CC1(C)[C@H](NC(=O)/C(=N\O[C@@H](COc2ccc(C(=N)N[C@@H]3CCCNC3)cc2)C(=O)O)c2csc(N)n2)C(=O)N1OS(=O)(=O)O [AIC499, reference compound] | 1 µg/mL (≈ 1.5 µM) | MIC90 [20]: > 8 µg/mL
2 | 0.03 µg/mL (≈ 0.0405 µM) | 0.5 µg/mL (≈ 0.675 µM) | 0.25 µg/mL (≈ 0.337 µM) | 0.06 µg/mL (≈ 0.081 µM) | < 0.015 µg/mL | 0.06 µg/mL (≈ 0.081 µM) | 0.125 µg/mL (≈ 0.169 µM) | 0.125 µg/mL (≈ 0.169 µM) | 4 µg/mL (≈ 5.4 µM) | 0.125 µg/mL (≈ 0.169 µM) | 0.125 µg/mL (≈ 0.169 µM) | 2 µg/mL (≈ 2.7 µM) | 4 µg/mL (≈ 5.4 µM) | 2 µg/mL (≈ 2.7 µM) | 0.125 µg/mL (≈ 0.169 µM) | 0.06 µg/mL (≈ 0.081 µM) | 0.03 µg/mL (≈ 0.0405 µM) | 0.06 µg/mL (≈ 0.081 µM) | 0.125 µg/mL (≈ 0.169 µM) | CC1(C)[C@H](NC(=O)/C(=N\O[C@@H](COc2ccc3c(c2)CN(C(=N)N(CCCN)CCCN)C3)C(=O)O)c2csc(N)n2)C(=O)N1OS(=O)(=O)O [Compound 32] | 0.5 µg/mL (≈ 0.675 µM) | MIC range [20]: 0.06 to 4 µg/mL; MIC90 [20]: 4 µg/mL (≈ 5.4 µM)
3 | 0.06 µg/mL (≈ 0.0845 µM) | 1 µg/mL (≈ 1.41 µM) | 0.5 µg/mL (≈ 0.704 µM) | 0.06 µg/mL (≈ 0.0845 µM) | 0.03 µg/mL (≈ 0.0423 µM) | 0.125 µg/mL (≈ 0.176 µM) | 0.25 µg/mL (≈ 0.352 µM) | 0.25 µg/mL (≈ 0.352 µM) | 4 µg/mL (≈ 5.64 µM) | 0.25 µg/mL (≈ 0.352 µM) | 0.25 µg/mL (≈ 0.352 µM) | 2 µg/mL (≈ 2.82 µM) | > 8 µg/mL | 4 µg/mL (≈ 5.64 µM) | 0.125 µg/mL (≈ 0.176 µM) | 0.125 µg/mL (≈ 0.176 µM) | 0.06 µg/mL (≈ 0.0845 µM) | 0.125 µg/mL (≈ 0.176 µM) | 1 µg/mL (≈ 1.41 µM) | CC1(C)[C@H](NC(=O)/C(=N\O[C@@H](COc2ccc3c(c2)CN(C(=N)N[C@@H]2CCCNC2)C3)C(=O)O)c2csc(N)n2)C(=O)N1OS(=O)(=O)O [Compound 41] | 0.5 µg/mL (≈ 0.704 µM) | MIC90 [20]: > 8 µg/mL
